# Reference: article PMC9112895, “Selective Inhibition of Plasmodium falciparum ATPase 6 by Artemisinins and Identification of New Classes of Inhibitors after Expression in Yeast” (Antimicrobial Agents and Chemotherapy, 2022)
# Marks after values point to notes of the source that are not given here.
# What was measured:
# PfATP6 [1] = biological target: T1, PfATP6 (Plasmodium falciparum, UniProt Q08853); assay: Yeast whole-cell growth inhibition (functional rescue) assay, K667[PfATP6]; format: cell-based; design: pUGpd containing the yeast-optimized coding region of PfATP6 from Plasmodium falciparum; expressed in transfected cells; host or cells: Saccharomyces cerevisiae K667 and K667Δpdr5::HIS
# Experimental: (§1) The screening assay used here was developed from the protocol used by Pulcini et al. ([13]). A single colony of the yeast strain to be screened was picked and grown in 5 mL of selective medium until stationary phase was reached. The culture was diluted 100-fold in ampicillin-supplemented yeast extract-peptone-dextrose (YPD) medium to an OD at 620 nm (OD620) equivalent to that of lag phase. YPD medium was supplemented with an appropriate concentration of calcium, depending on the transformed strain. […] The optimal calcium concentration was periodically monitored and, if necessary, adjusted using a calcium concentration range of 10 to 30 mM. A final volume of 200 μL of the yeast culture was added to each well of a 96-well plate, with 5 technical replicates included per inhibitor. All inhibitors were dissolved in dimethyl sulfoxide (DMSO) unless otherwise stated. […] The 96-well plates were incubated at 30°C for 42 h. The yeast growth was estimated from the absorbance at 620 nm in a Tecan plate reader. Growth was normalized with the no-drug control to present data as percent growth. The data collected were analyzed using GraphPad Prism v9.0 (GraphPad software, San Diego, CA, U.S.A).
# PfATP6 [2] = biological target: T1, PfATP6; assay: cell-based; format: cell-based; design: pUGpd containing the yeast-optimized coding region of PfATP6 from Plasmodium falciparum; expressed in transfected cells; host or cells: Saccharomyces cerevisiae K667 and K667Δpdr5::HIS; details: for Fold difference: IC50 K667[PfATP6] versus K667Δpdr5[PfATP6]; for inhibition of PfATP6 in compound screen: growth inhibition, K667Δpdr5[PfATP6]
# Experimental: as §1
# [3] = test system: cytosolic Ca2+ concentration in parasites; assay: Parasite calcium homeostasis (YC-Nano biosensor, flow cytometry); format: cell-based, Plasmodium falciparum; details: 25 μM, YC-Nano-expressing parasites
# Experimental: Three biological replicates were carried out, after an initial blinded experiment.
# PfATP6 [4] = biological target: T1, PfATP6; assay: DHA-biotin labeling / pulldown, Western blot and mass spectrometry; format: binding; design: pUGpd containing the yeast-optimized coding region of PfATP6 from Plasmodium falciparum; expressed in transfected cells; host or cells: Saccharomyces cerevisiae K667 and K667Δpdr5::HIS
# Experimental: Both whole yeast and microsomes were prepared for mass spectrometric analysis by addition of 500 nM biotin-tagged DHA probe to 200 μL (∼0.6 mg protein) of yeast microsome preparation or 10 μM probe to 50 to 100 mL yeast culture at an OD620 of 1.0 to 1.5 (∼35 to 70 mg total protein) and incubation for 4 h at 30°C. For competition studies, 25× artesunate was added and incubated for 30 min before addition of the probe and incubation for 4 h at 30°C. Samples were then acetone precipitated by adding 4 volumes of −20°C acetone/water (4:1) to the yeast pellet or microsomal pellet and incubating the mixture for 2 h to overnight at −20°C. The samples were then pelleted at 13,000 to 16,000 × g for 10 min at 0°C to 4°C and washed twice with −20°C acetone/water solution. After a final centrifugation, pellets were dried in a freeze-drier for 1 h. Subsequent pulldowns and liquid chromatography-tandem mass spectrometry were performed as described by Wang et al. ([18]).
# A 0.3-mg aliquot of PfATP6-enriched membrane vesicles, as well as an aliquot of SERCA1a and vector-only membrane vesicles, were thawed on ice. One-half of each aliquot (0.15 mg) was preincubated with 12.5 μM artesunate at 30°C for 30 min. Then, all samples had 500 nM DHA-biotin probe added (NewChem Technologies) and were incubated at 30°C for 4 h. […] Blots were analyzed using the Odyssey scanner system. […]
# Plasmodium falciparum = assay: In vitro parasite assay ([3H]hypoxanthine uptake); format: cell-based; details: parasites in vitro, read-out: antiparasitic potency IC50
# Experimental: Inhibitor IC50s were calculated in parasite assays following the protocol described by Desjardins et al. ([52]). Briefly, cultures were synchronized to ring stage by D-sorbitol lysis, using a 5% D-sorbitol solution. The parasites were diluted to a final parasitemia of 1%. Hypoxanthine-free medium was added to give a hematocrit level of 4%. A 2-fold dilution series of the inhibitors in hypoxanthine-free medium was prepared, and 100 μL of each inhibitor concentration was seeded in a 96-well plate, with 5 technical replicates of each included. Two no-inhibitor controls, i.e., hypoxanthine-free medium only, were included. Plates were incubated at 37°C in 5% CO2 for 24 h. After 24 h, [^3H]hypoxanthine was added to each well to a final concentration of 0.5 μCi/well, and the plates were incubated for a further 24 h. Plates were then freeze-thawed to lyse the cells, and the [^3H]hypoxanthine uptake was measured in a Beckman scintillation counter.
# PfATP6 [5] = biological target: T1, PfATP6; assay: In vitro activity assay, PfATP6 (membrane-bound); format: biochemical; design: pUGpd containing the yeast-optimized coding region of PfATP6 from Plasmodium falciparum; expressed in transfected cells; details: 1 μM free calcium
# Experimental: Activity assays were performed as described by Longland et al. ([55]) and LeBel et al. ([56]), except that the reaction mixtures were incubated at 30°C instead of 37°C. […] Then, 5.8 mM ATP was added and incubated for an additional 15 min at 30°C. The reaction was stopped with 0.5 mL 6.5% trichloroacetic acid (TCA) on ice, and the mixture was centrifuged at 4°C for 10 min at 16,000 × g; 0.5 mL of the supernatant was added to 1.5 mL of copper acetate buffer (0.25% copper sulfate pentahydrate, 4.6% sodium acetate trihydrate, dissolved in 2 M acetic acid [pH 4.0]) and mixed by vortex-mixing before the addition of 0.25 mL of 5% ammonium molybdate, followed by 0.25 mL METOL buffer (2% p-methyl-aminophenol sulfate, 5% sodium sulfite). Samples were incubated for 10 min, and the absorbance was measured at 870 nm in a spectrophotometer. The Pi standard was 0.4387 g/100 mL KH2PO4.
# T1 sequence (Q08853 whole entry): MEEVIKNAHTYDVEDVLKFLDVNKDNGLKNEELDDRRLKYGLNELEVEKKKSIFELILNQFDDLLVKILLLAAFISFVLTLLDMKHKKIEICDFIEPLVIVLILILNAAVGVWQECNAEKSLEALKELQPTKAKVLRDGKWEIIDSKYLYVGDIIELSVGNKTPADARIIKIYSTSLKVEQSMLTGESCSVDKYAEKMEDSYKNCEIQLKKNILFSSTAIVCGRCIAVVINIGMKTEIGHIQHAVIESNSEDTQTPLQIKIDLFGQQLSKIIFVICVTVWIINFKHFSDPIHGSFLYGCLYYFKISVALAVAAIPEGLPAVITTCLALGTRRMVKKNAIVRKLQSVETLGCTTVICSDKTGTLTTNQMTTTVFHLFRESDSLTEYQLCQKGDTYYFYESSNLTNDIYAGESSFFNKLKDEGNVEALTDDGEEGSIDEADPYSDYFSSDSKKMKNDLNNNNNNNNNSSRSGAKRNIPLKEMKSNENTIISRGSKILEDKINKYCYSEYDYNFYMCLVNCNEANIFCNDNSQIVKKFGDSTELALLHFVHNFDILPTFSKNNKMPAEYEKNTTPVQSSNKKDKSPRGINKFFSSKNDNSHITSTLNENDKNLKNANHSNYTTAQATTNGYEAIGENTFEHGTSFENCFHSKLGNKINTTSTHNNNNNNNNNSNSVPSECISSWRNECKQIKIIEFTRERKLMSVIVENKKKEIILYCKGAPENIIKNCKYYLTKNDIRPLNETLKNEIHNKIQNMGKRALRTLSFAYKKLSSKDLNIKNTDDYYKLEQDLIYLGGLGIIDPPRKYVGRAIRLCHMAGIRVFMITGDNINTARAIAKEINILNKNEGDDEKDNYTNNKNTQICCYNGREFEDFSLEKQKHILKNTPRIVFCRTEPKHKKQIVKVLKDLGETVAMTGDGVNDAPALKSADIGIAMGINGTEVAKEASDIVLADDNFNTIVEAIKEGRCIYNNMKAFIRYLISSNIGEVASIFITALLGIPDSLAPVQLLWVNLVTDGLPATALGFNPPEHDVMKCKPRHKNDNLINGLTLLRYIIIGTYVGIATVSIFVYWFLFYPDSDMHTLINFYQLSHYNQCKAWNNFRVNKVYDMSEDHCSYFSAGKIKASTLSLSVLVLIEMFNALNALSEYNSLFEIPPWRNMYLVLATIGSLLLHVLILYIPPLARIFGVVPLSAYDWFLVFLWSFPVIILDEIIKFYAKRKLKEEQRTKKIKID
Compound,IC50 (PfATP6 [1]) [µM],IC50 (PfATP6 [2]) [µM],Fold difference (PfATP6 [2]),other results
CO[C@H]1O[C@@H]2O[C@@]3(C)CC[C@H]4[C@H](C)CC[C@@H]([C@H]1C)[C@@]24OO3 [Artemether],15.7,3.4,5^e,"approximate IC10 (PfATP6 [2]; fitness cost assays, drug pressure): ~1 µM; IC80 (PfATP6 [2]; read-out: approximate yeast IC80): ~1 µM"
C[C@@H]1CC[C@H]2[C@@H](C)C(=O)O[C@@H]3O[C@@]4(C)CC[C@@H]1[C@]32OO4 [Artemisinin],10.6,1.8,,
C[C@H]1[C@H](N2CCS(=O)(=O)CC2)O[C@@H]2O[C@@]3(C)CC[C@H]4[C@H](C)CC[C@@H]1[C@@]24OO3 [Artemisone],3.6,0.9,4^c,change in cytosolic Ca2+ concentration [3]: significantly increased; change in cytosolic Ca2+ concentration ([3]; listed as artemisone): sustained elevation
C[C@H]1[C@H](OC(=O)CCC(=O)O)O[C@@H]2O[C@@]3(C)CC[C@H]4[C@H](C)CC[C@@H]1[C@@]24OO3 [Artesunate],14.8,3.7,4^d,competition with tagged DHA for PfATP6 (PfATP6 [4]; preincubation with excess artesunate): competed with the tagged DHA
"C[C@H]1[C@@H](O)O[C@@H]2O[C@@]3(C)CC[C@H]4[C@H](C)CC[C@@H]1[C@@]24OO3 [DHA, dihydroartemisinin]",23.8,2.1,11^c,IC50 (Plasmodium falciparum): 0.0025 µM; in vitro activity of PfATP6 versus no drug control (PfATP6 [5]): No significant
Oc1ccc(O)cc1 [benzohydroquinone],,,,inhibition of PfATP6 in compound screen (PfATP6 [2]): limited success
CC1CCC2C(C)C(OC(=O)CCOCCOCCOCCOCCNC(=O)CCCCC3SCC4NC(=O)NC43)OC3OC4(C)CCC1C32OO4 (stereo not drawn) [biotin-derivatized DHA],,,,"IC50 (Plasmodium falciparum): 0.005 µM; alkylation/labeling of PfATP6 (PfATP6 [4]; membrane extracts and whole yeast, K667[PfATP6], mass spectrometry): alkylated"
C[C@@H]1CC[C@H]2[C@@H](C)C(=O)O[C@@H]3O[C@@]4(C)CC[C@@H]1[C@]32O4 [deoxyartemisinin],,,,in vitro activity of PfATP6 versus no drug control (PfATP6 [5]): No significant
Cc1cc(O)c2c(=O)c3c(O)cc(O)c4c5c(O)cc(O)c6c(=O)c7c(O)cc(C)c8c1c2c(c34)c(c78)c65 [hypericin],,,,inhibition of PfATP6 in compound screen (PfATP6 [2]): limited success
"C[C@H]1O[C@@H](O[C@H]2CC[C@@]3(C)[C@@H](CC[C@]4(C)[C@@H]3C=C[C@]35OC[C@@]6(CCC(C)(C)C[C@H]63)[C@H](O)C[C@]54C)[C@]2(C)CO)[C@H](O)[C@@H](O[C@@H]2O[C@H](CO)[C@@H](O)[C@H](O)[C@H]2O)[C@H]1O [saikosaponin, Saikosaponin D]",,,,concentration at which PfATP6 was inhibited (PfATP6 [2]; inhibited only at high concentrations): > 100 µM
